In patent US20220233435A1 (priority 2019, published 2022):

Assay: Release of nicotine and vanillin from devices in artificial saliva
Assay type: physicochemical
Conditions: device with 50 w-% PVA / 50 w-% PLA, ca. 20 mg
Procedure: Three devices of each polymer matrix formulation were chosen for drug release experiments. Prior to the experiments, the dimensions and weight of the capsules were recorded. In the drug release experiments, the capsules were immersed in 2 mL of artificial saliva, which itself consists of a solution of 16.8 mM Na2HPO4, 1.4 mM KH2PO4, and 137 mM NaCl salts dissolved in purified water at pH 6.75. The solution was kept at 37° C. and under constant stirring. Once a day, 150 μL of solution was withdrawn from each sample to measure the amount of released drug in a high-performance liquid chromatography apparatus (HPLC). An equal amount of solution was added after each withdrawal to keep the total volume constant. The experiment was ceased between 35 and 42 days, due to devices turning red resulting from paracetamol degradation, or when all the drug was deemed to be released.
The release of nicotine and vanillin was measured similarly as in Examples 1 and 2.

Structure (SMILES) | cumulative release from device (day 2) [µg] | cumulative release from device (day 14) | loading degree in device [w-%] | cumulative release from device (day 4) | cumulative release from device (day 7) [µg]
CN1CCCC1c1cccnc1 (stereo not drawn) [Nicotine, nicotine] | 6 | ca. 7 μg | 0.04 | – | –
COc1cc(C=O)ccc1O [Vanillin, vanillin] | – | – | 0.32 | ca. 50 μg | 65
